The values below come from paper PMC5218480 (PLoS ONE, 2017).

The subject of this assay is MV-4-11 cells. As to the kind of experiment: Gene expression microarray analysis (Affymetrix PrimeView) and GSEA. The class given is cell-based, human. On the set-up: RFU PODN (11730768_x_at) / Fold change /veh PODN (11730768_x_at) / RFU LINC00158 (11744669_a_at) / Fold change /veh LINC00158 (11744669_a_at) / RFU DUSP10 (11751237_a_at) / Fold change /veh DUSP10 (11751237_a_at) / RFU ID3 (11757404_x_at) / Fold change /veh ID3 (11757404_x_at) / RFU PLEKHG5 (11737974_s_at) / Fold change /veh PLEKHG5 (11737974_s_at) / RFU LRRC4B (11730491_at) / Fold change /veh LRRC4B (11730491_at) / RFU GIMAP4 (11747438_a_at) / Fold change /veh GIMAP4 (11747438_a_at) / RFU KRT8 (11758183_x_at) / Fold change /veh KRT8 (11758183_x_at) / RFU CNN1 (11734310_a_at) / Fold change /veh CNN1 (11734310_a_at) / RFU VPS37D (11726825_at) / Fold change /veh VPS37D (11726825_at) / RFU C10orf10 (11716522_x_at) / Fold change /veh C10orf10 (11716522_x_at) / RFU KIR2DL2 /// KIR2DL4 /// KIR2DL5A /// KIR2DL5B /// KIR2DS1 /// KIR2DS2 /// KIR2DS3 /// KIR2DS4 /// KIR3DL3 /// KIR3DL3 /// KIR3DS1 (11738374_at) / Fold change /veh KIR2DL2 /// KIR2DL4 /// KIR2DL5A /// KIR2DL5B /// KIR2DS1 /// KIR2DS2 /// KIR2DS3 /// KIR2DS4 /// KIR3DL3 /// KIR3DL3 /// KIR3DS1 (11738374_at) / RFU C1QL1 (11718748_at) / Fold change /veh C1QL1 (11718748_at) / RFU TMPRSS4 (11747572_a_at) / Fold change /veh TMPRSS4 (11747572_a_at) / RFU HAMP (11756126_x_at) / Fold change /veh HAMP (11756126_x_at) / RFU RNFT2 (11725882_a_at) / Fold change /veh RNFT2 (11725882_a_at) / RFU NR4A2 (11747474_a_at) / Fold change /veh NR4A2 (11747474_a_at) / RFU ABCC12 (11746883_a_at) / Fold change /veh ABCC12 (11746883_a_at) / RFU TMEM136 (11760407_x_at) / Fold change /veh TMEM136 (11760407_x_at) / RFU CLDN22 /// WWC2 (11732394_at) / Fold change /veh CLDN22 /// WWC2 (11732394_at) / RFU HLA-DPB1 (11760878_x_at) / Fold change /veh HLA-DPB1 (11760878_x_at) / RFU SPINT1 (11716480_a_at) / Fold change /veh SPINT1 (11716480_a_at) / RFU GAP43 (11754022_s_at) / Fold change /veh GAP43 (11754022_s_at) / RFU A4GNT (11735810_at) / Fold change /veh A4GNT (11735810_at) / RFU PRB3 (11715151_x_at) / Fold change /veh PRB3 (11715151_x_at) / RFU TUBB4B (11761932_at) / Fold change /veh TUBB4B (11761932_at) / RFU CAPN14 (11732068_a_at) / Fold change /veh CAPN14 (11732068_a_at) / RFU TMCC2 (11721928_a_at) / Fold change /veh TMCC2 (11721928_a_at) / RFU IRGQ (11745062_a_at) / Fold change /veh IRGQ (11745062_a_at) / RFU FAM174B (11720279_a_at) / Fold change /veh FAM174B (11720279_a_at) / RFU TMPRSS4 (11748680_a_at) / Fold change /veh TMPRSS4 (11748680_a_at) / RFU FAM212B (11763350_a_at) / Fold change /veh FAM212B (11763350_a_at) / RFU PLEKHG5 (11743358_a_at) / Fold change /veh PLEKHG5 (11743358_a_at) / RFU ZSCAN30 (11745921_a_at) / Fold change /veh ZSCAN30 (11745921_a_at) / RFU CMKLR1 (11741424_a_at) / Fold change /veh CMKLR1 (11741424_a_at) / RFU LOC101060620 /// MAPK8IP1 (11723275_at) / Fold change /veh LOC101060620 /// MAPK8IP1 (11723275_at) / RFU SPTSSB (11747773_x_at) / Fold change /veh SPTSSB (11747773_x_at) / RFU PRSS12 (11739890_at) / Fold change /veh PRSS12 (11739890_at) / RFU BIN1 (11741810_x_at) / Fold change /veh BIN1 (11741810_x_at) / RFU WNT11 (11732464_a_at) / Fold change /veh WNT11 (11732464_a_at) / RFU C10orf10 (11716521_a_at) / Fold change /veh C10orf10 (11716521_a_at) / RFU C5orf56 (11738089_at) / Fold change /veh C5orf56 (11738089_at) / RFU CYB561 (11721691_x_at) / Fold change /veh CYB561 (11721691_x_at) / RFU ANKRD19P (11752326_a_at) / Fold change /veh ANKRD19P (11752326_a_at) / RFU OR2T12 /// OR2T33 /// OR2T8 (11738714_s_at) / Fold change /veh OR2T12 /// OR2T33 /// OR2T8 (11738714_s_at) / RFU VCAN (11748164_a_at) / Fold change /veh VCAN (11748164_a_at) / RFU JSRP1 (11732532_at) / Fold change /veh JSRP1 (11732532_at) / RFU KRTAP10-11 (11738290_x_at) / Fold change /veh KRTAP10-11 (11738290_x_at) / RFU MYO3A (11730013_a_at) / Fold change /veh MYO3A (11730013_a_at) / RFU EBF3 (11725865_a_at) / Fold change /veh EBF3 (11725865_a_at) / RFU CAMK2N1 (11719241_x_at) / Fold change /veh CAMK2N1 (11719241_x_at) / RFU C5orf56 (11738088_a_at) / Fold change /veh C5orf56 (11738088_a_at) / RFU OLFML3 (11715873_a_at) / Fold change /veh OLFML3 (11715873_a_at) / RFU LOC100653217 /// NTM (11731650_a_at) / Fold change /veh LOC100653217 /// NTM (11731650_a_at) / RFU MAPK11 (11762145_a_at) / Fold change /veh MAPK11 (11762145_a_at) / RFU FIZ1 (11724087_x_at) / Fold change /veh FIZ1 (11724087_x_at) / RFU OASL (11726364_x_at) / Fold change /veh OASL (11726364_x_at) / RFU SOX15 (11748057_x_at) / Fold change /veh SOX15 (11748057_x_at) / RFU CD79A (11719716_a_at) / Fold change /veh CD79A (11719716_a_at) / RFU HIST1H1D (11736915_at) / Fold change /veh HIST1H1D (11736915_at) / RFU CASKIN2 (11723855_a_at) / Fold change /veh CASKIN2 (11723855_a_at) / RFU LOC730098 (11760151_x_at) / Fold change /veh LOC730098 (11760151_x_at) / RFU OR4N2 (11742367_at) / Fold change /veh OR4N2 (11742367_at) / RFU PRRT2 (11749266_a_at) / Fold change /veh PRRT2 (11749266_a_at) / RFU SNX32 (11753110_a_at) / Fold change /veh SNX32 (11753110_a_at) / RFU CDHR5 (11726645_a_at) / Fold change /veh CDHR5 (11726645_a_at) / RFU RCAN1 (11760418_a_at) / Fold change /veh RCAN1 (11760418_a_at) / RFU FAM167A (11723789_a_at) / Fold change /veh FAM167A (11723789_a_at) / RFU FAM26E (11764081_at) / Fold change /veh FAM26E (11764081_at) / RFU ISYNA1 (11749810_s_at) / Fold change /veh ISYNA1 (11749810_s_at) / RFU ACY1 (11761880_at) / Fold change /veh ACY1 (11761880_at) / RFU 11764098_at / Fold change /veh 11764098_at / RFU SAMD14 (11745864_x_at) / Fold change /veh SAMD14 (11745864_x_at) / RFU NPB (11741838_a_at) / Fold change /veh NPB (11741838_a_at) / RFU TMPRSS6 (11731388_a_at) / Fold change /veh TMPRSS6 (11731388_a_at) / RFU KRTAP10-2 (11738614_at) / Fold change /veh KRTAP10-2 (11738614_at) / RFU ARHGAP8 /// PRR5-ARHGAP8 (11727945_x_at) / Fold change /veh ARHGAP8 /// PRR5-ARHGAP8 (11727945_x_at) / RFU KRTAP5-7 /// NADSYN1 (11734609_at) / Fold change /veh KRTAP5-7 /// NADSYN1 (11734609_at) / RFU RASL12 (11751679_a_at) / Fold change /veh RASL12 (11751679_a_at) / RFU CDKN2B (11736163_a_at) / Fold change /veh CDKN2B (11736163_a_at) / RFU PRF1 (11729649_at) / Fold change /veh PRF1 (11729649_at) / RFU, ZNF638 /// ZNF638-IT1 / Fold change vs veh, ZNF638 /// ZNF638-IT1 / RFU, PANK3 / Fold change vs veh, PANK3 / RFU, SH3YL1 / Fold change vs veh, SH3YL1 / RFU, ZEB2 / Fold change vs veh, ZEB2 / RFU, NRIP1 / Fold change vs veh, NRIP1 / RFU, PTTG1IP / Fold change vs veh, PTTG1IP / RFU, CAPN2 / Fold change vs veh, CAPN2 / RFU, MED14 / Fold change vs veh, MED14 / RFU, SNORA58 / Fold change vs veh, SNORA58 / RFU, C1orf63 / Fold change vs veh, C1orf63 / RFU, LRRFIP1 / Fold change vs veh, LRRFIP1 / RFU, NDUFAF7 / Fold change vs veh, NDUFAF7 / RFU, SLC12A2 / Fold change vs veh, SLC12A2 / RFU, IBTK / Fold change vs veh, IBTK / RFU, ESF1 / Fold change vs veh, ESF1 / Fold change vs veh, TMEM50B / RFU, TAOK1 / Fold change vs veh, TAOK1 / RFU, ACBD3 / Fold change vs veh, ACBD3 / RFU, TMA16 / Fold change vs veh, TMA16 / RFU, RWDD3 / Fold change vs veh, RWDD3 / RFU, BCAT1 / Fold change vs veh, BCAT1 / RFU, EDEM3 / Fold change vs veh, EDEM3 / RFU, TMEM33 / Fold change vs veh, TMEM33 / RFU, WDR75 / Fold change vs veh, WDR75 / RFU, AHCTF1 / Fold change vs veh, AHCTF1 / RFU, TFRC / Fold change vs veh, TFRC / RFU, ZDHHC17 / Fold change vs veh, ZDHHC17 / RFU, NOM1 / Fold change vs veh, NOM1 / RFU, ARL8B / Fold change vs veh, ARL8B / RFU, ZBTB11 / Fold change vs veh, ZBTB11 / RFU, TAMM41 / Fold change vs veh, TAMM41 / RFU, KIAA1704 /// LOC100996395 / Fold change vs veh, KIAA1704 /// LOC100996395 / RFU, ING1 / Fold change vs veh, ING1 / RFU, TRMT61B / Fold change vs veh, TRMT61B / RFU, FUBP3 / Fold change vs veh, FUBP3 / RFU, TP53 / Fold change vs veh, TP53 / RFU, TNKS2 / Fold change vs veh, TNKS2 / RFU, ZFP14 / Fold change vs veh, ZFP14 / RFU, ACTR2 / Fold change vs veh, ACTR2 / RFU, PPP3R1 / Fold change vs veh, PPP3R1 / RFU, PIK3R1 / Fold change vs veh, PIK3R1 / RFU, HNRNPA1 / Fold change vs veh, HNRNPA1 / RFU, RNF170 / Fold change vs veh, RNF170 / RFU, ZNF28 / Fold change vs veh, ZNF28 / RFU, RNGTT / Fold change vs veh, RNGTT / RFU, OGT / Fold change vs veh, OGT / RFU, BRD1 / Fold change vs veh, BRD1 / RFU, MARS / Fold change vs veh, MARS / RFU, ZNF655 / Fold change vs veh, ZNF655 / RFU, FAHD1 / Fold change vs veh, FAHD1 / RFU, BDP1 / Fold change vs veh, BDP1 / RFU, LRRCC1 / Fold change vs veh, LRRCC1 / RFU, ARID1A / Fold change vs veh, ARID1A / RFU, ZNF146 / Fold change vs veh, ZNF146 / RFU, ZNF330 / Fold change vs veh, ZNF330 / RFU, GPN3 / Fold change vs veh, GPN3 / RFU, C9orf123 / Fold change vs veh, C9orf123 / RFU, N4BP2L2 / Fold change vs veh, N4BP2L2 / RFU, ARFIP1 / Fold change vs veh, ARFIP1 / RFU, FAM179B / Fold change vs veh, FAM179B / RFU, BCL10 / Fold change vs veh, BCL10 / RFU, UHRF1BP1L / Fold change vs veh, UHRF1BP1L / RFU, BET1 / Fold change vs veh, BET1 / RFU, CNOT2 / Fold change vs veh, CNOT2 / RFU, ZNF268 / Fold change vs veh, ZNF268 / Fold change vs veh, ZNF507 / RFU, DGCR2 / Fold change vs veh, DGCR2 / RFU, WDSUB1 / Fold change vs veh, WDSUB1 / Fold change vs veh, HSP90B1 /// MIR3652 / RFU, ADSS / Fold change vs veh, ADSS / RFU, GK / Fold change vs veh, GK / RFU, ZNF148 / Fold change vs veh, ZNF148 / RFU, TAF9 / Fold change vs veh, TAF9 / RFU, SLC1A5 / Fold change vs veh, SLC1A5 / RFU, SLMO2 / Fold change vs veh, SLMO2 / RFU, ABCC4 / Fold change vs veh, ABCC4 / RFU, LOC101060439 /// RAP1B / Fold change vs veh, LOC101060439 /// RAP1B / RFU, RFX7 / Fold change vs veh, RFX7 / RFU, GTPBP10 / Fold change vs veh, GTPBP10 / RFU, CNEP1R1 / Fold change vs veh, CNEP1R1 / RFU, BIVM-ERCC5 /// ERCC5 / Fold change vs veh, BIVM-ERCC5 /// ERCC5 / RFU, ILF3 / Fold change vs veh, ILF3 / RFU 11762660_at / Fold change /veh 11762660_at / RFU VCAN (11757783_s_at) / Fold change /veh VCAN (11757783_s_at) / RFU DDX43 (11728927_at) / Fold change /veh DDX43 (11728927_at) / RFU KRT8 (11758188_x_at) / Fold change /veh KRT8 (11758188_x_at) / RFU NKD1 (11759106_at) / Fold change /veh NKD1 (11759106_at) / RFU SRD5A1 (11742802_a_at) / Fold change /veh SRD5A1 (11742802_a_at) / RFU TPSAB1 /// TPSB2 (11721975_s_at) / Fold change /veh TPSAB1 /// TPSB2 (11721975_s_at) / RFU GSTM3 (11746129_a_at) / Fold change /veh GSTM3 (11746129_a_at) / RFU IL23R (11737362_x_at) / Fold change /veh IL23R (11737362_x_at) / RFU TMEM51 (11727254_a_at) / Fold change /veh TMEM51 (11727254_a_at) / RFU PIWIL2 (11732686_x_at) / Fold change /veh PIWIL2 (11732686_x_at) / RFU ORM1 (11744905_x_at) / Fold change /veh ORM1 (11744905_x_at) / RFU CCDC152 (11743942_at) / Fold change /veh CCDC152 (11743942_at) / RFU ECM1 (11717891_a_at) / Fold change /veh ECM1 (11717891_a_at) / RFU IL23R (11748794_a_at) / Fold change /veh IL23R (11748794_a_at) / RFU TNFAIP8L3 (11732012_x_at) / Fold change /veh TNFAIP8L3 (11732012_x_at) / RFU MBOAT4 (11741988_at) / Fold change /veh MBOAT4 (11741988_at) / RFU 11764193_at / Fold change /veh 11764193_at / RFU TMEM53 (11763286_at) / Fold change /veh TMEM53 (11763286_at) / RFU MAGEB2 (11727129_at) / Fold change /veh MAGEB2 (11727129_at) / RFU TMEM200A (11744735_a_at) / Fold change /veh TMEM200A (11744735_a_at) / RFU CCDC152 (11751479_a_at) / Fold change /veh CCDC152 (11751479_a_at) / RFU FAM211A (11726209_a_at) / Fold change /veh FAM211A (11726209_a_at) / RFU RGS16 (11746705_a_at) / Fold change /veh RGS16 (11746705_a_at) / RFU VCAN (11755009_s_at) / Fold change /veh VCAN (11755009_s_at) / RFU RHOB (11743442_s_at) / Fold change /veh RHOB (11743442_s_at) / RFU RGS16 (11720943_a_at) / Fold change /veh RGS16 (11720943_a_at) / RFU RGS16 (11720944_at) / Fold change /veh RGS16 (11720944_at) / RFU, VPS4B / Fold change vs veh, VPS4B / RFU, CREB1 / Fold change vs veh, CREB1 / RFU, DNAJC13 / Fold change vs veh, DNAJC13 / RFU, GNAQ / Fold change vs veh, GNAQ / RFU, CDK5R1 / Fold change vs veh, CDK5R1 / RFU, ZRANB3 / Fold change vs veh, ZRANB3 / RFU, CUL4A / Fold change vs veh, CUL4A / RFU, CCNY / Fold change vs veh, CCNY / RFU, UFL1 / Fold change vs veh, UFL1 / RFU, COG3 / Fold change vs veh, COG3 / RFU, DIAPH2 / Fold change vs veh, DIAPH2 / RFU, SKA2 / Fold change vs veh, SKA2 / RFU, AFF3 / Fold change vs veh, AFF3 / RFU, LMF1 / Fold change vs veh, LMF1 / RFU, IPO11 / Fold change vs veh, IPO11 / RFU, DFFB / Fold change vs veh, DFFB / RFU, FOXP1 / Fold change vs veh, FOXP1 / RFU, CARD8 / Fold change vs veh, CARD8 / RFU, STRN3 / Fold change vs veh, STRN3 / RFU, ADK / Fold change vs veh, ADK / RFU, RASSF2 / Fold change vs veh, RASSF2 / RFU, WIPF1 / Fold change vs veh, WIPF1 / RFU, LARP1B / Fold change vs veh, LARP1B / RFU, RASA1 / Fold change vs veh, RASA1 / RFU, RB1 / Fold change vs veh, RB1 / RFU, PPFIA1 / Fold change vs veh, PPFIA1 / RFU, MAT2A / Fold change vs veh, MAT2A / RFU, CCT5 / Fold change vs veh, CCT5 / RFU, WDR92 / Fold change vs veh, WDR92 / RFU, CUX1 / Fold change vs veh, CUX1 / RFU, TTC7A / Fold change vs veh, TTC7A / RFU, TMEM135 / Fold change vs veh, TMEM135 / RFU, DEPTOR / Fold change vs veh, DEPTOR / RFU, CPM / Fold change vs veh, CPM / RFU, DNAJB6 / Fold change vs veh, DNAJB6 / RFU, CACNA2D3 / Fold change vs veh, CACNA2D3 / RFU, DTX4 / Fold change vs veh, DTX4 / RFU, TFCP2 / Fold change vs veh, TFCP2 / RFU, GMCL1 /// GMCL1P1 / Fold change vs veh, GMCL1 /// GMCL1P1 / RFU, AEBP2 / Fold change vs veh, AEBP2 / RFU, SNHG1 /// SNORD22 /// SNORD25 /// SNORD26 /// SNORD27 /// SNORD28 /// SNORD29 /// SNORD31 / Fold change vs veh, SNHG1 /// SNORD22 /// SNORD25 /// SNORD26 /// SNORD27 /// SNORD28 /// SNORD29 /// SNORD31 / Fold change (Aza/veh), C12orf56 (ProbeSet 11735607_a_at) / Fold change (ACY-1035/veh), C12orf56 (ProbeSet 11735607_a_at) / Fold change (Aza/veh), FGFR1OP (ProbeSet 11751329_s_at) / Fold change (ACY-1035/veh), FGFR1OP (ProbeSet 11751329_s_at) / Fold change (Aza/veh), VPS36 (ProbeSet 11739960_a_at) / Fold change (ACY-1035/veh), VPS36 (ProbeSet 11739960_a_at) / RFU SYPL1 (11715823_x_at) / Fold change /veh SYPL1 (11715823_x_at) / RFU IGFBP7 (11715501_s_at) / Fold change /veh IGFBP7 (11715501_s_at) / RFU REEP3 (11722064_at) / Fold change /veh REEP3 (11722064_at) / RFU IGLL1 (11728026_x_at) / Fold change /veh IGLL1 (11728026_x_at): dose or concentration left out as unconfirmed. The following applies: MV-4-11 cells, 48 hours.

On to `Nc1ncn([C@@H]2O[C@H](CO)[C@@H](O)[C@H]2O)c(=O)n1` [azacitidine], for which the “RFU TNFAIP8L3 (11732012_x_at)” value is recorded as 9.37 RFU.
